One assay has as its system α-TN4. The assay can be described thus: Snail up-regulation in α-TN4 lens epithelial cell line after TGF-β addition. Type of assay: cell-based, mouse. Conditions: prior to up-regulation of αSMA.
The test system of assay [1] is renal tubular epithelial cells. Description: TGF-β1-induced EMT and autoinduction in primary culture of renal tubular epithelial cells. Type of assay: cell-based, mouse. Conditions: wild-type cells, TGF-β1 10 ng/ml. On the procedure: Minced kidneys were washed with 3 changes of cold PBS containing 1 mM EDTA and digested in 0.25% trypsin solution (Gibco BRL, Grand Island, N.Y.) in a shaking incubator at 37° C. for 2 h. Trypsin was neutralized with growth medium (DMEM/10% FBS containing 100 unit/ml penicillin and 0.1 mg/ml streptomycin). The suspension was triturated by pipetting and passed through a 100 μm cell strainer (Becton Dickinson Labware, Franklin Lakes, N.J.). The filtrate consisting mostly of dispersed renal tubules was plated onto culture dishes (Nalge Nunc International, Naperville, Ill.) and 2-well chamber slides (Nunc Lab-Tek II-CC2, Nalge Nunc International), and incubated at 37° C. in a CO2 incubator with medium changes every 2 days. Experiments were carried out in serum-free DMEM. EMT was induced by an addition of 10 ng/ml TGF-β1 (R&D Systems, Minneapolis, Minn.). Mouse monoclonal anti-TGF-β neutralizing antibody (clone: 1D11, R & D Systems) was used at a concentration of 20 μg/ml with mouse IgG (Sigma, St Louis, Mo.) as a control.
Histological sections were prepared from tissues fixed in 4% paraformaldehyde in 0.1 M phosphate buffer, pH 7.4, and embedded in paraffin. Cryosections and bottom sheets of BioFlex were fixed in cold acetone and subjected to indirect immunofluorescence with anti-E-cadherin (clone: DECMA-1, Sigma, St Louis, Mo.), anti-α-SMA (clone: 1A4, NeoMarkers, Fremont, Calif.), anti-mouse type I collagen (Southern Biotechnology, Birmingham, Ala.) and anti-mouse F4/80 antibodies (clone: A3-1, BMA, Augst, Switzerland). As second antibodies, FITC-anti-rat IgG (Sigma), TRITC-anti-mouse IgG (Sigma) or Cy3-anti-goat IgG (Sigma) were used.
Cells and tissues were lysed in buffer containing 1% Nonidet P-40, 25 mM Tris-HCl, pH 7.5, 150 mM NaCl, 10 mM EDTA and 1:50 dilution of a protease inhibitor cocktail (P-2714, Sigma). Proteins were separated by SDS-PAGE, transferred to nitrocellulose membranes, and blocked in 5% skim milk in PBS. After incubation with primary antibodies against E-cadherin (clone: 36, Transduction Laboratories, Lexington, Ky.), α-SMA (clone: 1A4) and actin antibodies (Sc-1616, Santa Cruz Biochemicals, Santa Cruz, Calif.), blots were reacted with POD-conjugated goat anti-mouse IgG secondary antibody (Sigma) and developed with ECL (Amersham Biosciences, Buckingshire, UK).
Total RNA was extracted with TRIzol reagent (Invitrogen, Carlsbad, Calif.). RNA (20 μg/lane), separated in 1% agarose-formaldehyde gels and transferred to Hybond-HX nylon membranes (Amersham). Membranes were hybridized with cDNA probes for mouse Snail and TGF-β1 mRNA labeled with [P^32] dCTP by random primed DNA synthesis using the same primers as above (Rediprime II, Amersham Pharmacia Inc., Piscataway, N.J.). Filters were exposed to X-ray film at −80° C. for 2 to 3 d. […]

Assay [2] relates to ARPE-19 cells. Description: Production of PDGF, TGF-β1 and collagen type I in ARPE-19 cells treated with TGF-β2. Type of assay: cell-based, human. As to conditions: 48 hr. How it is done:
Expression of PDGF-BB in ARPE-19 cells was assessed by western blot of cell lysates using PDGF-B (H-55, Santa Cruz Biotechnology, Inc.). Enzyme-linked immunosorbent assays (ELISAs) for PDGF-BB, PDGF-AB and TGF-β1 (R & D Systems, Inc., Minneapolis, Minn.) were used to determine the concentration of each peptide in the culture medium. ARPE-19 cells were grown in 6-well plates to near confluence and then cultured in 500 μl of serum-free DMEM/F-12 supplemented with antibiotics in the presence or absence of human recombinant TGF-β2 (1.0 ng/ml R & D Systems, Inc., Minneapolis, Minn.) for 48 or 96 hrs. Nine wells were prepared for each culture condition. Medium was processed for ELISAs for determination of the concentration of PDGF-BB and -AB according to the manufacturers' protocols. Medium (48 hr) was also processed for the determination of TGF-β1 by an ELISA kit (R & D Systems, Minneapolis, Minn.). Type I collagen was quantified in medium and sonicated cell lysates (48 hr) and processed for an ELISA system for type I collagen C-terminal peptide (PIP ELISA kit, Takara, Tokyo, Japan). Confluent cells grown on a chamber slides (Nunc) were immunostained for collagen type I (1:100 dilution in PBS, Southern Biotechnology).

Assay [3] concerns ARPE-19 cells. The assay can be described thus: Proliferation of ARPE-19 cells (MTT assay). Type of assay: cell-based, human. As to conditions: sparse cultures, up to 120 hr; PDGF-BB 5 ng/ml, TGF-β2 1 ng/ml. How it is done:
Effects of adding TGF-β2, PDGF-BB, and/or anti-PDGF-B-neutralizing antibody on proliferation of ARPE-19 cells were assessed using the MTT assay (TACS MTT Cell Proliferation Assay Kit, Trevigen, Gaithersburg, Md., USA) according to manufacturer's instruction. ARPE 19 cells suspended in DMEM/F-12 supplemented with 15% fetal calf serum (2×10^4/100 μl/well) were seeded in 96-well culture plates (8 wells for each condition). After 12 hrs cells were changed to 100 μl serum-free culture medium and cultured for an additional 120 hr supplemented with PDGF-BB (5.0 ng/ml) or TGF-β2 (1.0 ng/ml), with either neutralizing anti-PDGF-B antibody (20 μg/ml) or non-immune IgG (20 μg/ml) as control. At the end of each culture interval, MTT reagent (10 μl) was added to each well and the incubation continued for an additional 5 hr at 37° C. Optical density at 570 nm was measured 4 hr after adding the lysis solution contained in the kit.
A general note: Tetrazolium assays rely on reduction of a dye to a coloured formazan, in cell work by metabolically active cells.

For TGF-β, the “earliest time of snail up-regulation after TGF-β addition” value in the assay on α-TN4 is reported as 30 min.

With “TGF-β1: exogenous TGF-β1 (R&D Systems), growth factor used to induce EMT”, in assay [1] (8 h, not in Smad3-null cells), the “Snail mRNA (Northern blot)” value is “de novo expression of Snail mRNA”. In addition, the “TGF-β1 mRNA expression (autoinduction)” value in assay [1] (24 h, vs non-treated wild-type, not in Smad3-null cells) is “enhanced expression of TGF-β1 mRNA”. Also, the “cell morphology (phase-contrast microscopy)” value in assay [1] (24 h, Smad3-null cells retained epithelial monolayer) is reported as “spindle-shaped, fibroblastic appearance”. Besides, the “E-cadherin and α-SMA by dual immunofluorescence” value in assay [1] (24 h, not seen in Smad3-null cells) is “Marked reduction of E-cadherin and de novo expression of α-SMA”. For the same molecule, the “amount of type I collagen in culture medium and cell lysate (ELISA)” value with ARPE-19 cells [2] is reported as “increase”.

B1: PDGF-BB: exogenous PDGF-BB, a potent mitogen, 5.0 ng/ml (protein, UniProt P01127 82-190, looked up)
Platelet-derived growth …: SLGSLTIAEPAMIAECKTRTEVFEISRRLIDRTNANFLVWPPCVEVQRCSGCCNNRNVQCRPTQVQLRPVQVRKIEIVRKKPIFKKATVTLEDHLACKCETVAAARPVT
modifications: homodimer PDGF-BB
On to B1, for which, in the assay on ARPE-19 cells [3], the “growth of the cells (MTT assay)” value is recorded as “enhanced”.

These data come from patent publication US20060040253A1, “Use of Smad3 inhibitor in the treatment of fibrosis dependent on epithelial to mesenchymal transition as in the eye and kidney” (priority 2003, published 2006).
